Assay [1] has as its system Mus musculus. As to the kind of experiment: In vivo increase in the bleeding time was determined when administered at 30 umol/kg orally 1 hour prior to challenge. The class given is functional.
The test system of assay [2] is Mus musculus. As to the kind of experiment: In vivo antithrombotic activity in Swiss mice was determined when the compound was administered at 30 umol/kg orally 1 hour prior to challenge. The class given is functional.

Structures are written as SMILES.

With `Cc1ccc(-c2cc(CN(Cc3ccc(C#N)cc3)C(CO)C(N)=O)no2)cc1` (configuration not stated), in assay [1], the Increase was determined as 41%. The compound also returned a Protection in assay [2] of 60%. In the same order, the values of `NC(=O)C(CO)N(Cc1ccc(Br)cc1)Cc1cc(-c2ccccc2Cl)on1` (configuration not stated) are 50% and 70%. In the case of `NC(=O)CCC(C(N)=O)N(Cc1ccc(Br)cc1)Cc1cc(-c2ccccc2Cl)on1` (configuration not stated), in assay [2], the Protection amounted to 20%. Regarding `Cc1ccc(-c2cc(CN(Cc3cccc([N+](=O)[O-])c3)C(CCCCN)C(N)=O)no2)cc1` (configuration not stated), the Protection in assay [2] was 20%. The compound `Cc1ccc(CN(Cc2cc(-c3ccccc3)on2)C(CCCCN)C(N)=O)cc1` (configuration not stated) came in with a Protection in assay [2] of 20%. On to `CC(=O)Oc1ccccc1C(=O)O` [ASPIRIN], for which, in assay [1], the Increase was found to be 110%. In assay [2], this compound showed a Protection of 40%. Consider `Cc1ccc(-c2cc(CN(Cc3cccc(Br)c3)C(CCCCN)C(N)=O)no2)cc1` (configuration not stated), for which, in assay [2], the Protection amounted to 40%.

`Cc1ccc(-c2cc(CN(Cc3ccc(C#N)cc3)C(Cc3ccc(O)cc3)C(N)=O)no2)cc1` (configuration not stated): the Protection in assay [2] is listed as 20%.

Compound `NC(=O)C(Cc1c[nH]cn1)N(Cc1ccccc1)Cc1cc(-c2ccccc2)on1` (configuration not stated) had an Increase in assay [1] of 81%. The same compound came in with a Protection in assay [2] of 50%.

`Cc1ccc(-c2cc(CN(Cc3ccccc3)C(CO)C(N)=O)no2)cc1` (configuration not stated) displayed an Increase in assay [1] of 79%. In addition, in assay [2], the Protection is given as 60%. In the case of `CC(C)=CCC(C(N)=O)N(Cc1cccc(C)c1)Cc1cc(-c2ccc(C)cc2)on1` (configuration not stated), the Protection in assay [2] is 60%. In turn, `N#Cc1ccc(CN(Cc2cc(-c3ccccc3Cl)on2)C(CCCNC(=N)N)C(N)=O)cc1` (configuration not stated) returned an Increase in assay [1] of 87.5%. Moreover, the Protection in assay [2] is given as 90%. Turning to `Cc1ccc(-c2cc(CN(Cc3ccccc3)C(CCCN=C(N)N)C(N)=O)no2)cc1` (configuration not stated), the Protection in assay [2] is 10%. On the same count and under the same terms, the value for `N#Cc1ccc(CN(Cc2cc(-c3ccccc3Cl)on2)C(Cc2ccc(O)cc2)C(N)=O)cc1` (configuration not stated) was 40%; that for `NC(=O)C(Cc1c[nH]cn1)N(Cc1cccc(Br)c1)Cc1cc(-c2ccccc2)on1` (configuration not stated) was 40%. The compound `Cc1ccc(-c2cc(CN(Cc3cccc(C)c3)C(Cc3ccccc3)C(N)=O)no2)cc1` (configuration not stated) had an Increase in assay [1] of 0%. This compound also displayed a Protection in assay [2] of 50%. In turn, `CC(C)=CCC(C(N)=O)N(Cc1ccc(C#N)cc1)Cc1cc(-c2ccccc2)on1` (configuration not stated) gave a Protection in assay [2] of 20%. Still for that read-out and setting: the value for `Cc1ccc(-c2cc(CN(Cc3ccccc3)C(CCCCN)C(N)=O)no2)cc1` (configuration not stated) was 40%; that for `Cc1ccc(-c2cc(CN(CC(N)=O)Cc3ccccc3)no2)cc1` was 20%.

As for `N#Cc1ccc(CN(Cc2cc(-c3ccccc3Cl)on2)C(Cc2ccccc2)C(N)=O)cc1` (configuration not stated), the Increase in assay [1] is 0%. This compound registered a Protection in assay [2] of 50%. `N=C(N)NCCCC(C(N)=O)N(Cc1ccc(Br)cc1)Cc1cc(-c2ccccc2)on1` (configuration not stated): the Increase in assay [1] stood at 25%. This compound also yielded a Protection in assay [2] of 80%. Compound `NC(=O)C(Cc1ccccc1)N(Cc1ccc([N+](=O)[O-])cc1)Cc1cc(-c2ccccc2Cl)on1` (configuration not stated) returned a Protection in assay [2] of 20%.

Turning to `CC(C)=CCC(C(N)=O)N(Cc1ccccc1)Cc1cc(-c2ccccc2)on1` (configuration not stated), the Protection in assay [2] is on record as 30%.

In turn, `NCCCCC(C(N)=O)N(Cc1ccc([N+](=O)[O-])cc1)Cc1cc(-c2ccccc2)on1` (configuration not stated) displayed a Protection in assay [2] of 30%.

Take `N#Cc1ccc(CN(Cc2cc(-c3ccccc3)on2)C(CO)C(N)=O)cc1` (configuration not stated): in assay [2], the Protection amounted to 30%. The compound `N#Cc1ccc(CN(Cc2cc(-c3ccccc3)on2)C(CCC(N)=O)C(N)=O)cc1` (configuration not stated) yielded an Increase in assay [1] of 62%. Also, the Protection in assay [2] is 70%. As for `NC(=O)C(Cc1ccccc1)N(Cc1ccc(Br)cc1)Cc1cc(-c2ccccc2)on1` (configuration not stated), the Protection in assay [2] is listed as 20%. `Cc1ccc(CN(Cc2cc(-c3ccccc3)on2)C(Cc2c[nH]cn2)C(N)=O)cc1` (configuration not stated) displayed a Protection in assay [2] of 40%.

As for `NC(=O)C(Cc1ccccc1)N(Cc1ccccc1)Cc1cc(-c2ccccc2Cl)on1` (configuration not stated), the Protection in assay [2] is on record as 30%.

`NC(=O)C(Cc1ccc(O)cc1)N(Cc1ccc(Br)cc1)Cc1cc(-c2ccccc2Cl)on1` (configuration not stated) displayed a Protection in assay [2] of 60%. Take `N#Cc1ccc(CN(Cc2cc(-c3ccccc3)on2)C(Cc2c[nH]cn2)C(N)=O)cc1` (configuration not stated): in assay [1], the Increase is recorded as 80%. In addition, in assay [2], the Protection amounted to 50%. As for `CC(C)=CCC(C(N)=O)N(Cc1ccc(C)cc1)Cc1cc(-c2ccccc2)on1` (configuration not stated), in assay [2], the Protection was found to be 20%. `Cc1ccc(-c2cc(CN(Cc3cccc(Br)c3)C(Cc3c[nH]cn3)C(N)=O)no2)cc1` (configuration not stated) came in with a Protection in assay [2] of 10%. Same read-out and setting: the result for `Cc1ccc(-c2cc(CN(Cc3ccc(C#N)cc3)C(CCCN=C(N)N)C(N)=O)no2)cc1` (configuration not stated) reads 40%; that for `N=C(N)NCCCC(C(N)=O)N(Cc1ccccc1)Cc1cc(-c2ccccc2Cl)on1` (configuration not stated), 40%.

For the compound `NC(=O)C(Cc1ccccc1)N(Cc1ccccc1)Cc1cc(-c2ccccc2)on1` (configuration not stated), the Protection in assay [2] was found to be 30%. On to `Cc1ccc(-c2cc(CN(Cc3ccccc3)C(Cc3ccc(O)cc3)C(N)=O)no2)cc1` (configuration not stated), for which, in assay [1], the Increase stood at 20%. In addition, the Protection in assay [2] is reported as 60%. In the same order, the values of `NC(=O)C(CO)N(Cc1ccccc1)Cc1cc(-c2ccccc2)on1` (configuration not stated) are 58% and 60%. In the case of `N#Cc1ccc(CN(Cc2cc(-c3ccccc3Cl)on2)C(CO)C(N)=O)cc1` (configuration not stated), in assay [2], the Protection was found to be 10%. `N#Cc1ccc(CN(Cc2cc(-c3ccccc3)on2)C(CCCNC(=N)N)C(N)=O)cc1` (configuration not stated): the Increase in assay [1] is on record as 31%. The compound also displayed a Protection in assay [2] of 50%. In assay [2], `NC(=O)C(Cc1ccc(O)cc1)N(Cc1ccc(Br)cc1)Cc1cc(-c2ccccc2)on1` (configuration not stated) had a Protection of 20%. `Cc1ccc(-c2cc(CN(Cc3ccc(C#N)cc3)C(CCCCN)C(N)=O)no2)cc1` (configuration not stated) had a Protection in assay [2] of 40%.

`NC(=O)C(Cc1c[nH]cn1)N(Cc1ccc([N+](=O)[O-])cc1)Cc1cc(-c2ccccc2)on1` (configuration not stated) registered an Increase in assay [1] of 30%. The same compound gave a Protection in assay [2] of 60%. In assay [2], `NC(=O)C(CO)N(Cc1ccc(Br)cc1)Cc1cc(-c2ccccc2)on1` (configuration not stated) yielded a Protection of 30%. Compound `Cc1ccc(-c2cc(CN(Cc3cccc([N+](=O)[O-])c3)C(Cc3c[nH]cn3)C(N)=O)no2)cc1` (configuration not stated) came in with an Increase in assay [1] of 40%. The Protection in assay [2] is recorded as 60%.

In assay [2], `Cc1ccc(-c2cc(CN(Cc3ccc(Br)cc3)C(CCCN=C(N)N)C(N)=O)no2)cc1` (configuration not stated) had a Protection of 40%.

The values above are taken from ChEMBL document CHEMBL1135176, “Combinatorial synthesis and biological evaluation of isoxazole-based libraries as antithrombotic agents” (2002).
